Assay results published in ChEMBL document CHEMBL4507326, “Data for DCP probe TP-030-2” (2021).
Active and inactive are the calls of the source.

Assays:
[1] = biological target: cAMP-dependent protein kinase catalytic subunit gamma (Homo sapiens, UniProt P22612); test: PKAgamma(PRCGLGY1) Takeda global kinase panel
[2] = biological target: Dual specificity protein kinase CLK4 (Homo sapiens, UniProt Q9HAZ1); test: CLK4(CLK4IGF1) Takeda global kinase panel
[3] = biological target: Ephrin type-A receptor 7 (Homo sapiens, UniProt Q15375); test: EphA7(EPA7LGF1) Takeda global kinase panel
[4] = biological target: B2 bradykinin receptor (Homo sapiens) (UniProt P30411); settings: Compound concentration 10.0 uM
[5] = biological target: Kappa-type opioid receptor (Homo sapiens) (UniProt P41145); settings: Compound concentration 10.0 uM
[6] = biological target: Mixed lineage kinase domain-like protein (Homo sapiens, UniProt Q8NB16); test: MLKL(MLKLPHY1) Takeda global kinase panel
[7] = biological target: Melatonin receptor type 1A (Homo sapiens) (UniProt P48039); test: Inhibition of Melatonin MT1 at 10 µM in the Eurofins-Panlabs radioligand binding assay (Eurofins_assay_251600); parameters: ligand concentration 0.05 nM; settings: Compound concentration 10.0 uM
[8] = biological target: Serine/threonine-protein kinase greatwall (Homo sapiens, UniProt Q96GX5); test: MASTL(MASLLGE1) Takeda global kinase panel
Serine/threonine-protein kinase greatwall, sequence (Q96GX5 whole entry): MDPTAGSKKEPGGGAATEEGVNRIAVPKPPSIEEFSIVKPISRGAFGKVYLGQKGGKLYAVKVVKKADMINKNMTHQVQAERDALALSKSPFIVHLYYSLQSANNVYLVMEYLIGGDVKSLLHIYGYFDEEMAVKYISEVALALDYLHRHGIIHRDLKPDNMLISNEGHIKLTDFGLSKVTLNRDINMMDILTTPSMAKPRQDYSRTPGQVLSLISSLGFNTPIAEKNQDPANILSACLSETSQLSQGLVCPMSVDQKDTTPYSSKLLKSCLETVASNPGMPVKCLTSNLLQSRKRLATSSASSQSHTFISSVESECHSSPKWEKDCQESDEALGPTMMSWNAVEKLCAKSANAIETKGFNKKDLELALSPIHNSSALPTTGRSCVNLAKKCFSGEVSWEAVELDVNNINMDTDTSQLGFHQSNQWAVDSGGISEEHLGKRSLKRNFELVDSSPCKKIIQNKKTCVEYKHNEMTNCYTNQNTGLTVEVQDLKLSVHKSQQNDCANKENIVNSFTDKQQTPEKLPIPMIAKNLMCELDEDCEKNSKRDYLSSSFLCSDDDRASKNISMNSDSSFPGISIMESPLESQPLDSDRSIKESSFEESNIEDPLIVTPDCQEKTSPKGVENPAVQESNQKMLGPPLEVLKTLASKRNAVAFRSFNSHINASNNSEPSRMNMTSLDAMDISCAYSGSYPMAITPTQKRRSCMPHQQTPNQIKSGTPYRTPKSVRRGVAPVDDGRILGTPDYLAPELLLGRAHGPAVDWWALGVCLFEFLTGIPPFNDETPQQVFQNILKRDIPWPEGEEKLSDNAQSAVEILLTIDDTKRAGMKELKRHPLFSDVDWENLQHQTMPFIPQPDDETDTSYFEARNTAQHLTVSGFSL

[9] = species: Homo sapiens; settings: Compound concentration 10.0 uM
[10] = biological target: Serine/threonine-protein kinase Nek11 (Homo sapiens, UniProt Q8NG66); test: Nek11(NE11LGRI) Takeda global kinase panel
[11] = biological target: Cyclin-dependent kinase 12 (Homo sapiens, UniProt Q9NYV4); test: CRK7(CD12PHS1) Takeda global kinase panel
[12] = biological target: RAC-gamma serine/threonine-protein kinase (Homo sapiens, UniProt Q9Y243); test: Akt3 [PKBgamma(AKT3LGY1)] Takeda global kinase panel
[13] = biological target: Bromodomain testis-specific protein (Homo sapiens, UniProt Q58F21); test: BRDT(BRDTLGRC) Takeda global kinase panel
[14] = biological target: cAMP-dependent protein kinase catalytic subunit alpha (Homo sapiens, UniProt P17612); test: PKAalpha(PRCALGH1) Takeda global kinase panel
[15] = biological target: Receptor-interacting serine/threonine-protein kinase 1 (Mus musculus, UniProt Q60855); test: TR-FRET (mouse RIPK1)
Receptor-interacting serine/threonine-protein kinase 1, sequence (Q60855 whole entry): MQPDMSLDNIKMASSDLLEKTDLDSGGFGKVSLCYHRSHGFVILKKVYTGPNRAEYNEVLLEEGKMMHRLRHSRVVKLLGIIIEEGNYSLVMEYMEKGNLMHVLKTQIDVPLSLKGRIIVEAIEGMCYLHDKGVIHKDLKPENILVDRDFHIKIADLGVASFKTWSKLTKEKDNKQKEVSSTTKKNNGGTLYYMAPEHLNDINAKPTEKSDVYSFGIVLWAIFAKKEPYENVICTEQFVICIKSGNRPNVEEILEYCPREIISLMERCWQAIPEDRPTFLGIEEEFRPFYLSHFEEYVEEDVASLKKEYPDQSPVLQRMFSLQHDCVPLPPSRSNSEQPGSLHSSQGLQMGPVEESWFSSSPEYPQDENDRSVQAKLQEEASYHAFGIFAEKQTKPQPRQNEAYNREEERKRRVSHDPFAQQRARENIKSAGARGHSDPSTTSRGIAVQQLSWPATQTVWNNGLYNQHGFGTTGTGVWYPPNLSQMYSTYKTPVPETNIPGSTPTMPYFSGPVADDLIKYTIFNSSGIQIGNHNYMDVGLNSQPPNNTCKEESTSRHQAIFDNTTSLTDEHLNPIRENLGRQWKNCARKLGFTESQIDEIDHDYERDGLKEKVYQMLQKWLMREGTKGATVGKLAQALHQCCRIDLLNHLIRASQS

[16] = biological target: TRAF2 and NCK-interacting protein kinase (Homo sapiens, UniProt Q9UKE5); test: TNIK [ZC2(TNIKLGF1)] Takeda global kinase panel
TRAF2 and NCK-interacting protein kinase, sequence (Q9UKE5 whole entry): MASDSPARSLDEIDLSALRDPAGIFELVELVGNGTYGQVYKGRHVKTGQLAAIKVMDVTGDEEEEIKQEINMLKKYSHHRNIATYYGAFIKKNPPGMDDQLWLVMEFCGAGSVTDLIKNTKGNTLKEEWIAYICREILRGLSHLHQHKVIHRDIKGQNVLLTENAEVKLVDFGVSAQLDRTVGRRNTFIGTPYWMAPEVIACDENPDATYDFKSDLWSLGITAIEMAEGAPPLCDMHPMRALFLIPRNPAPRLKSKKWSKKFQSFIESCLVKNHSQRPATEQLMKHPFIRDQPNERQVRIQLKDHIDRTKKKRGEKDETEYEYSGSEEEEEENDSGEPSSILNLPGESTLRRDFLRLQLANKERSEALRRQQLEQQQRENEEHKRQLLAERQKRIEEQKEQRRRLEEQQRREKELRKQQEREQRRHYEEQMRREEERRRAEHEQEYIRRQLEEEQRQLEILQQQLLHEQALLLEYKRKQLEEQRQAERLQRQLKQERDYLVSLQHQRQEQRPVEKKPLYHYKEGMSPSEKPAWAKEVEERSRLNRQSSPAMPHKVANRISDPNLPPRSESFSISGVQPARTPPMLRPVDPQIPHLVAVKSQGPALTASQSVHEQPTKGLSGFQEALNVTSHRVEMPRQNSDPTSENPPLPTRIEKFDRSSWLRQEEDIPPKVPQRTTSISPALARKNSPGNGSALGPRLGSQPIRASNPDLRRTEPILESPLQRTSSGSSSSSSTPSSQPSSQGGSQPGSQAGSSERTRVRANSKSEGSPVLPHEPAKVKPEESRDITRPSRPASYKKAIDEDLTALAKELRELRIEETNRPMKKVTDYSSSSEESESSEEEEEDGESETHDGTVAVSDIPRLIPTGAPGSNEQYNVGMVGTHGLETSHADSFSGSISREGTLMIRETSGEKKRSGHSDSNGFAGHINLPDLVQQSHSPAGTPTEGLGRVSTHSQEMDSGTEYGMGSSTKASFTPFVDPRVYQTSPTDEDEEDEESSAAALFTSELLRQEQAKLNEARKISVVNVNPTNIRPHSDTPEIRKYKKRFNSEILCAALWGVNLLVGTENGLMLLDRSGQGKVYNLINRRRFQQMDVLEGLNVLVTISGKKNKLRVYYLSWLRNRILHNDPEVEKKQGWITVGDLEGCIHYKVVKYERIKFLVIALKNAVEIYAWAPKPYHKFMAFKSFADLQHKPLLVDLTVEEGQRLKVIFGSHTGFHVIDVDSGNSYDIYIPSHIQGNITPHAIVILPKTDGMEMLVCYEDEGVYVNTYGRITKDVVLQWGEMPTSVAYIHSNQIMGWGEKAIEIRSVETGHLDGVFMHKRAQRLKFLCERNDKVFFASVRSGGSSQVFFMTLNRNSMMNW

[17] = biological target: Ribosomal protein S6 kinase alpha-6 (Homo sapiens, UniProt Q9UK32); test: RSK4(R6A6LGF1) Takeda global kinase panel
[18] = biological target: Serine/threonine-protein kinase VRK1 (Homo sapiens, UniProt Q99986); test: VRK1(VRK1LGRI) Takeda global kinase panel
[19] = biological target: Cyclin-dependent kinase 18 (Homo sapiens, UniProt Q07002); test: PCTAIRE3(CD18SGS1) Takeda global kinase panel
[20] = biological target: Muscarinic acetylcholine receptor M3 (Homo sapiens) (UniProt P20309); settings: Compound concentration 10.0 uM
[21] = biological target: Mitogen-activated protein kinase 8 (Homo sapiens, UniProt P45983); test: JNK1(MAP8LGF1) Takeda global kinase panel
[22] = biological target: Glycogen synthase kinase-3 beta (Homo sapiens, UniProt P49841); test: GSK3beta(GS3BLGM1) Takeda global kinase panel
[23] = biological target: 5-hydroxytryptamine receptor 2A (Homo sapiens, UniProt P28223); test: GPCRScan assay: inhibition of 5-HT2A; parameters: radioligand conc. used [nm] 1.2 – 2.4, parental cells HEKT
5-hydroxytryptamine receptor 2A, sequence (P28223 whole entry): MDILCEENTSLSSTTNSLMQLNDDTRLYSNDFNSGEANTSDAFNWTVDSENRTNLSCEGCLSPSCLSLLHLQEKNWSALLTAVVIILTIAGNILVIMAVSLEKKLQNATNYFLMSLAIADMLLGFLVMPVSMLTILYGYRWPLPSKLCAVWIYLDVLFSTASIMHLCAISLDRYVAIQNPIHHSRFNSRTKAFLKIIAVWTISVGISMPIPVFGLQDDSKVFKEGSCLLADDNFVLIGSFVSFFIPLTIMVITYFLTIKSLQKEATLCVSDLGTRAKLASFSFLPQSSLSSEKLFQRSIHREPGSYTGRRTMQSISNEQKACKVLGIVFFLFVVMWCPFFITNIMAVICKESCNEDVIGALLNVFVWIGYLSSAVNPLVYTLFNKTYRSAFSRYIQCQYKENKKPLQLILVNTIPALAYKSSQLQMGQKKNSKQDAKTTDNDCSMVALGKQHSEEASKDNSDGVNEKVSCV

[24] = GPCRScan assay: inhibition of GABA/PBR; parameters: species or system Rattus norvegicus; radioligand conc. used [nm] 0.3 – 2.0, parental cells brain tissue
[25] = species: Rattus norvegicus; settings: Compound concentration 10.0 uM
[26] = biological target: Wee1-like protein kinase 2 (Homo sapiens, UniProt P0C1S8); test: Wee1B(WE1BLGF1) Takeda global kinase panel
[27] = biological target: Muscarinic acetylcholine receptor M1 (Homo sapiens) (UniProt P11229); settings: Compound concentration 10.0 uM
[28] = biological target: Interferon-induced, double-stranded RNA-activated protein kinase (Homo sapiens, UniProt P19525); test: PKR(EIK2LGY1) Takeda global kinase panel
[29] = biological target: Tyrosine-protein kinase Srms (Homo sapiens, UniProt Q9H3Y6); test: Srm(SRMSLGY1) Takeda global kinase panel
[30] = biological target: Serine/threonine-protein kinase PAK 5 (Homo sapiens, UniProt Q9P286); test: PAK5(PAK7LGF1) Takeda global kinase panel
[31] = biological target: Ribosomal protein S6 kinase alpha-1 (Homo sapiens, UniProt Q15418); test: RSK1 [p90RSK(R6A2CGE1)] Takeda global kinase panel
Ribosomal protein S6 kinase alpha-1, sequence (Q15418 whole entry): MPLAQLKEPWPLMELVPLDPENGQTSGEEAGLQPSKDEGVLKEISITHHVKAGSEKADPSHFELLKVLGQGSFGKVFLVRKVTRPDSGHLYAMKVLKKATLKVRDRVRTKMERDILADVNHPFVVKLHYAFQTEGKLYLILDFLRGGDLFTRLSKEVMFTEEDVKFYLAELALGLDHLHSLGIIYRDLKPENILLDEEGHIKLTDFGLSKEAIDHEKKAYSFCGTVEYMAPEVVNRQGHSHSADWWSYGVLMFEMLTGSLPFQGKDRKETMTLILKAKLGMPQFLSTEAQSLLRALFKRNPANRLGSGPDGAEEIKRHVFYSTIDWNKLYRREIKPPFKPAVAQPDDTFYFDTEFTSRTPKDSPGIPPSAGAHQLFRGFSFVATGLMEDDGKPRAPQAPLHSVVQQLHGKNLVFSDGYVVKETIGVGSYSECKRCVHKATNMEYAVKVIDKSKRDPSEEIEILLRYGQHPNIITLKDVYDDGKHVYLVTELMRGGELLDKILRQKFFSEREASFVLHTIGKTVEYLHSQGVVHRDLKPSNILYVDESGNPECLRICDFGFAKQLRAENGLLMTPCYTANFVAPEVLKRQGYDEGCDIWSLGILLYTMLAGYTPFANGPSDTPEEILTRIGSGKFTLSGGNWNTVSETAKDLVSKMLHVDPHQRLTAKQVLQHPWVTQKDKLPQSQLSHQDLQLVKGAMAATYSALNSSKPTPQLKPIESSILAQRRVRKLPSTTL

[32] = biological target: Protein-tyrosine kinase 6 (Homo sapiens, UniProt Q13882); test: Brk(PTK6LGY1) Takeda global kinase panel
[33] = biological target: G protein-coupled receptor kinase 5 (Homo sapiens, UniProt P34947); test: GRK5(GRK5LGP1) Takeda global kinase panel
[34] = biological target: hERG (KCNH2) (Homo sapiens, UniProt Q12809); test: Inhibition of Potassium Channel hERG at 10 µM in the Eurofins-Panlabs radioligand binding assay (Eurofins_assay_265900); parameters: ligand concentration 1.5 nM, non-specific ligand with concentration Astemizole, incubation time 60 min, incubation temperature 25 °C; settings: HEK-293 cells expressing human recombinant hERG, probe [3H] Astemizole, compound concentration 10 uM
[35] = biological target: Ephrin type-B receptor 1 (Homo sapiens, UniProt P54762); test: EphB1(EPB1LGY1) Takeda global kinase panel
[36] = biological target: Gamma-aminobutyric acid type B receptor subunit 1 (Homo sapiens) (UniProt Q9UBS5); test: Inhibition of GABAB1A at compound concentration of 10.0 uM in the Eurofins-Panlabs radioligand binding assay (Eurofins_assay_228610); parameters: ligand concentration 4 nM; settings: Compound concentration 10.0 uM
[37] = biological target: Casein kinase I isoform alpha-like (Homo sapiens, UniProt Q8N752); test: CK1alpha2(C1ALLGI5) Takeda global kinase panel
[38] = biological target: Aurora kinase B (Homo sapiens, UniProt Q96GD4); test: AurB [Aur1(AURBPGE1)] Takeda global kinase panel
[39] = biological target: Histamine H2 receptor (Homo sapiens) (UniProt P25021); settings: Compound concentration 10.0 uM
[40] = biological target: Tyrosine-protein kinase ITK/TSK (Homo sapiens, UniProt Q08881); test: ITK(ITK1CGF1) Takeda global kinase panel
[41] = biological target: Serine/threonine-protein kinase LATS2 (Homo sapiens, UniProt Q9NRM7); test: LATS2(LAT2LGY1) Takeda global kinase panel
[42] = biological target: Cyclin-dependent kinase 1 (Homo sapiens, UniProt P06493); test: CDC2 [CDK1(CDK1CGS1)] Takeda global kinase panel
[43] = biological target: High affinity nerve growth factor receptor (Homo sapiens, UniProt P04629); test: TRKA(NTR1LGN1) Takeda global kinase panel
High affinity nerve growth factor receptor, sequence (P04629 whole entry): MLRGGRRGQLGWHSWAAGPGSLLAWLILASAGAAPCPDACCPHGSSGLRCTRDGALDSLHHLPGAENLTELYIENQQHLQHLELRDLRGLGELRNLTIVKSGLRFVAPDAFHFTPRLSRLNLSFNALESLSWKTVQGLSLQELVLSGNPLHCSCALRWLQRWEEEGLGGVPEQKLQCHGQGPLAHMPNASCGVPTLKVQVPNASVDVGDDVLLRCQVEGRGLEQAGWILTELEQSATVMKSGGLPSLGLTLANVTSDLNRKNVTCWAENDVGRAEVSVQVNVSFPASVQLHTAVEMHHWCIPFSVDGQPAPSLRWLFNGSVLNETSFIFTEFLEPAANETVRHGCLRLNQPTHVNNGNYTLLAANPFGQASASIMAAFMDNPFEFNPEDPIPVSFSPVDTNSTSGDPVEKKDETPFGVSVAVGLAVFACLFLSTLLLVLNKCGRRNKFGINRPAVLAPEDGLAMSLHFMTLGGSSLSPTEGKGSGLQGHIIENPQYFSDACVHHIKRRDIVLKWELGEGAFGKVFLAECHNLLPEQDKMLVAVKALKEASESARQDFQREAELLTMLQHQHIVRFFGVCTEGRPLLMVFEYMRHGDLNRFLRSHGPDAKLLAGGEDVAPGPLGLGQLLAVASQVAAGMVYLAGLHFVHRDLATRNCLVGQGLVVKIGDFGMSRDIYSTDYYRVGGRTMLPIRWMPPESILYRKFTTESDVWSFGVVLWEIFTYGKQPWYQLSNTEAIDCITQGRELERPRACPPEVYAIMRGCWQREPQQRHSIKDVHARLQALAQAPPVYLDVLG

[44] = biological target: Death-associated protein kinase 2 (Homo sapiens, UniProt Q9UIK4); test: DAPK2(DAP2LGF1) Takeda global kinase panel
[45] = biological target: Ephrin type-B receptor 3 (Homo sapiens, UniProt P54753); test: EphB3(EPB3LGRJ) Takeda global kinase panel

CN1C(=O)[C@@H](N2CCc3c(nn(Cc4ccccc4)c3Br)C2=O)COc2ccccc21 [TP-030-2]
7% (not active): inhibition at 60 min, 10 µM [34]
6.465: pKi [24]
active: IC50 [15] 100 nM | inhibition [25] 82.2%
347 nM: Ki [24]
2070 nM: Ki ([23]; read-out: Ki)
inactive: inhibition [4] 0% | inhibition [5] 3% | inhibition [7] 33% | inhibition [9] 16% | inhibition [20] 1.23% | inhibition [27] -4% | inhibition [36] 1% | inhibition [39] 0.52%
1000 nM: IC50 [1] | IC50 [2] | IC50 [3] | IC50 [6] | IC50 [8] | IC50 [10] | IC50 [11] | IC50 [12] | IC50 [13] | IC50 [14] | IC50 [16] | IC50 [17] | IC50 [18] | IC50 [19] | IC50 [21] | IC50 [22] | IC50 [26] | IC50 [28] | IC50 [29] | IC50 [30] | IC50 [31] | IC50 [32] | IC50 [33] | IC50 [35] | IC50 [37] | IC50 [38] | IC50 [40] | IC50 [41] | IC50 [42] | IC50 [43] | IC50 [44] | IC50 [45]
2040 nM: Ki ([23]; read-out: pKi (converted))
